The text below walks through data of patent publication US20230398099A1, “METHODS OF TREATING CONDITIONS RELATED TO THE S1P1 RECEPTOR” (Arena Pharmaceuticals, Inc., priority 2020, published 2023).

SMILES strings stand for the structures. Where two headings read alike, the source gives them in different places.

The target in assay [1] is hS1PR1 (Homo sapiens, UniProt P21453). The assay is described as follows: b-arrestin recruitment assay. Type of assay: cell-based. The conditions noted are these: for EC50: b-arrestin recruitment, hS1PR1, EC50 [95% confidence interval] (n).
Chain of hS1PR1 (P21453 whole entry): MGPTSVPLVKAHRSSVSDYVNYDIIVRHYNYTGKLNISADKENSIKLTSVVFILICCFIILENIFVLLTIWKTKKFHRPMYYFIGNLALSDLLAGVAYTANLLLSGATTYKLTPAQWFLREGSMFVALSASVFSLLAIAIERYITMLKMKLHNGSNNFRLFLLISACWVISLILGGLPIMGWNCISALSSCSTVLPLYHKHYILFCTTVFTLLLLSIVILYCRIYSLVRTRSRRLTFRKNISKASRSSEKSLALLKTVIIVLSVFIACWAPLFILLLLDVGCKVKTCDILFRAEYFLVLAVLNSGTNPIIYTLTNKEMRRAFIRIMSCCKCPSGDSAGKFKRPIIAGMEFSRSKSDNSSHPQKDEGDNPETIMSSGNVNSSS
The target in assay [2] is T1, hS1PR4 (Homo sapiens, UniProt O95977).
T1 sequence (O95977 1-384): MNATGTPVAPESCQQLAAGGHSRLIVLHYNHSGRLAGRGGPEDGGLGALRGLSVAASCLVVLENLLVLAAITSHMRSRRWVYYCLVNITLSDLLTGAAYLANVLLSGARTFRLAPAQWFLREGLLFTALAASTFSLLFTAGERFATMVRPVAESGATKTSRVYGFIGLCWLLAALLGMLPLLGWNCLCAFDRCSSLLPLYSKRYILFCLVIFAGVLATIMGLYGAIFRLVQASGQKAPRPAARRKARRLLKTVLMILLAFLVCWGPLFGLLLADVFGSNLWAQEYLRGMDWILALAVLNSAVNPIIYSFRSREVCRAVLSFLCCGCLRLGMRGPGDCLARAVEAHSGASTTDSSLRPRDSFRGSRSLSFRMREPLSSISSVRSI
The assay is described as follows: b-arrestin recruitment assay. Type of assay: cell-based. Conditions: for EC50: EC50 [95% confidence interval] (n).

The target of assay [3] is hS1PR5 (Homo sapiens, UniProt Q9H228). The assay is described as follows: b-arrestin recruitment assay. Type of assay: cell-based. Conditions: for EC50: EC50 [95% confidence interval] (n).
Chain of hS1PR5 (Q9H228 whole entry): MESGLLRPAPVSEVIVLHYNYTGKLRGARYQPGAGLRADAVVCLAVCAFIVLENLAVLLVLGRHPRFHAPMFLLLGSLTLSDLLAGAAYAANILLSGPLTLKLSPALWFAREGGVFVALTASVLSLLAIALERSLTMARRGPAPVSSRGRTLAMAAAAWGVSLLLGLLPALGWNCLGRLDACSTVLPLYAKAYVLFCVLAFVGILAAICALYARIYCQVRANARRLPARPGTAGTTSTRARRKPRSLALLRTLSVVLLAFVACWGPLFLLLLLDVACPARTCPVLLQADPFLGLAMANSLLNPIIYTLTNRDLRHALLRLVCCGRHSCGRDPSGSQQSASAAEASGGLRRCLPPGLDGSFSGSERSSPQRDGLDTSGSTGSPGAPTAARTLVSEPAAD
The target of assay [4] is S1P2 Receptor (Homo sapiens, UniProt O95136). The assay is described as follows: S1P2 receptor internalization. The assay is classed as cell-based. Conditions: N 5.
Chain of S1P2 Receptor (O95136 whole entry): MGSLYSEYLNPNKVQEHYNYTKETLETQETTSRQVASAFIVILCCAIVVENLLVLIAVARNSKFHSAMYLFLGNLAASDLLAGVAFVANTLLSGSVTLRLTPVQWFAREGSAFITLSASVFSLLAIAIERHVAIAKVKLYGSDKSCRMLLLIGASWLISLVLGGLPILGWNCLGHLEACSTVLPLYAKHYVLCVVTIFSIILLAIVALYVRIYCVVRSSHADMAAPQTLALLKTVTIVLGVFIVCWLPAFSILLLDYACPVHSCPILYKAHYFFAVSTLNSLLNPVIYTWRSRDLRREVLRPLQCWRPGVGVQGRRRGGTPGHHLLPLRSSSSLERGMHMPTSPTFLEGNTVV
For assay [5], the target named is hS1P1 (Homo sapiens, UniProt P21453). The assay is described as follows: S1P1 GTPgS binding assay. Type of assay: biochemical. The conditions noted are these: for EC50: S1P1 GTPgS binding, EC50 [95% confidence interval] (n).
Chain of hS1P1 (P21453 whole entry): as the sequence (P21453 whole entry) above
For assay [6], the system named is FITC-induced contact hypersensitivity (CHS)/dermatitis in BALB/c mice. The assay is described as follows: mouse model of FITC-induced contact dermatitis. The assay is classed as in vivo. The conditions noted are these: for skin thickening (ear thickening): FIG. 8. The text has this: Fluorescein isothiocyanate isomer I (FITC) was used to induce contact hypersensitivity (CHS)/dermatitis in BALB/c mice by administering two sensitizing applications of the hapten onto the shaved flanks of the animals on Days 0 and 5, followed by three days of FITC challenge on the dorsal surface of both ears on Days 10-12. […] Treatment was initiated on Day −1 to model prophylactic treatment.

Assay [7] has as its system OVA-induced acute asthma model in mice. The assay is described as follows: ovalbumin (OVA)-induced acute asthma model. Conditions: QD Day 12-15; for immune cells in bronchoalveolar lavage (BAL): FIG. 9. The assay is classed as in vivo, mouse. The protocol: The OVA model is a widely used pre-clinical allergic asthma model and recapitulates many of the hallmarks of allergic asthma in humans. These include elevated IgE and TH2 related cytokines, mucus hypersecretion, airway inflammation, goblet cell hyperplasia, epithelial hypertrophy, and airway hyperreactivity to stimuli.
Mice were sensitized with an intraperitoneal (IP) injection of OVA and adjuvant on days 0 and 7. Mice were then challenged with intranasal delivery of OVA (10-200 μg) in saline on days 13-15 with endpoints conducted on day 16. Endpoints in this model generally included total and differential cell counts as well as inflammatory mediator content in the broncho-alveolar lavage fluid, airway hyperreactivity and detailed lung mechanics measured with the flexiVent™ rodent mechanical ventilator as well as histopathology and immunohistochemistry on lung sections.

Assay [8] concerns the target hS1PR2 (Homo sapiens, UniProt O95136). The assay is described as follows: b-arrestin recruitment assay. Type of assay: cell-based.
The target in assay [9] is hS1PR3 (Homo sapiens, UniProt Q99500). The assay is described as follows: b-arrestin recruitment assay. The assay is classed as cell-based.
Chain of hS1PR3 (Q99500 whole entry): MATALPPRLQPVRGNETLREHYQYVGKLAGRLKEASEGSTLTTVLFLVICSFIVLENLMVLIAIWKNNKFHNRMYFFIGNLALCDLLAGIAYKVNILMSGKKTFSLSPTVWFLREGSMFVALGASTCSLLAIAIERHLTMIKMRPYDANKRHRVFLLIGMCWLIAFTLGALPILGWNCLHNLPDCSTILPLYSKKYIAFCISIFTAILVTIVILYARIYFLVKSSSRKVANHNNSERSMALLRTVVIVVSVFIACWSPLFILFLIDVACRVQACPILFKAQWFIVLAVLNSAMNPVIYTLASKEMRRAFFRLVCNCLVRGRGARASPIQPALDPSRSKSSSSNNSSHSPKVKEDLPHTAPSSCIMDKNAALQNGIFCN
Where [10] appears, read: 1 mg/kg daily oral, compared to vehicle, dose-dependent, FIG. 6.
Setting [11] is: 1 mg/kg daily oral, compared to vehicle, dose-dependent, FIG. 7.

Chain of hS1PR2 (O95136 whole entry): as the sequence (O95136 whole entry) above

Regarding `CC(C)Cc1ccc(-c2nc(-c3ccc(CN4CC(C(=O)O)C4)c(F)c3)no2)cc1` [Compound 1, 1-{2-fluoro-4-[5-(4-isobutylphenyl)-1,2,4-oxadiazole-3-yl]benzyl}-3-azetidinecarboxylic acid], the Emax in [1] came out at 128%; in assay [2] (read-out: Emax), 104%; in assay [3] (read-out: Emax) it was 120%; in [5], 98%. Moreover, the EC50 in assay [1] came out at 6.2 nM; in [2] (b-arrestin recruitment, hS1PR4) it was 3.2 nM; in [3] (b-arrestin recruitment, hS1PR5) it was 0.71 nM; in assay [4], 2510 nM; in assay [5] it was 1.8 nM. The “Efficacy, % of S1P” value in [4] came out at 65%. The “skin thickening (ear thickening)” value in [6] (0.1 mg/kg daily oral) is reported as “had no effect”; in assay [6] (1 mg/kg daily oral), “reduced skin thickening”. The “B cells in the skin” value in assay [6] (setting [10]) is “reduced”. The “T cells in the skin” value in assay [6] (setting [10]) is “reduced”. In assay [6] (setting [11]), the WBC count result is recorded as “reduced”. Also, the lymphocyte frequency result in [6] (setting [11]) was “reduced”. The “immune cells in bronchoalveolar lavage (BAL)” value in assay [7] (0.1 mg/kg PO) and in assay [7] (1 mg/kg PO) was “did not have significant effect” each time. Also, in [7] (PO, Methacholine challenge, FIG. 10), the “lung function measured by airway resistance or elastance” value is given as “no significant effect”.
As to `CCCCCCCCCCCCC/C=C/[C@@H](O)[C@@H](N)COP(=O)(O)O` [Compound S1P, sphingosine-1-phosphate], the maximum response (Emax) in assay [1] stood at 113%; in assay [8], 108%; in assay [9], 113%; in assay [2] (read-out: Emax) it was 117%; in [3] (read-out: Emax), 114%; in assay [5], 102%. The EC50 in [1] was found to be 18.3 nM; in [9] (b-arrestin recruitment, hS1PR3, EC50 [95% confidence interval] (n)), 13.9 nM; in assay [2] (b-arrestin recruitment, hS1PR4), 0.99 nM; in [5], 77 nM. For the same compound, the “Efficacy, % of S1P” value in assay [4] is on record as 100%.
For the compound `CCCCCCCCc1ccc(CC[C@](N)(CO)COP(=O)(O)O)cc1` [Fingolimod(P)], the Emax is 94% in assay [2] (b-arrestin recruitment, hS1PR4, % relative to S1P) and 62% in [3] (b-arrestin recruitment, hS1PR5, % relative to S1P). The same compound had an EC50 in assay [2] (b-arrestin recruitment, hS1PR4) of 0.76 nM. Besides, the “Efficacy, % of S1P” value in [4] is on record as 80%.
For `CC(C)Oc1ccc(-c2nc(-c3cccc4c3CC[C@@H]4NCCO)no2)cc1C#N` [Ozanimod], the Emax came to 130% in [1], 93% in [2] (read-out: Emax), 117% in assay [3] (read-out: Emax) and 104% in [5]. Also, the EC50 was determined as 117 nM in [2] (b-arrestin recruitment, hS1PR4) and 7.3 nM in assay [3] (b-arrestin recruitment, hS1PR5).
